Laboratory results reported in publication PMC11864979, “First-in-class ultralong-target-residence-time p38α inhibitors as a mitosis-targeted therapy for colorectal cancer” (Nature Cancer, 2025).
Read-outs that look alike come from different tables or passages of the source.

How the values were obtained:
Assay in all cases: selectivity profiling in a panel of 340 wild-type kinases (Reaction Biology Europe)
Assay type in all cases: binding
340 wild-type kinases [1] = target: T1, 340 wild-type kinases (Homo sapiens, UniProt P07949)
T1 construct: purchased Reaction Biology Europe
T1 sequence (P07949 29-1114): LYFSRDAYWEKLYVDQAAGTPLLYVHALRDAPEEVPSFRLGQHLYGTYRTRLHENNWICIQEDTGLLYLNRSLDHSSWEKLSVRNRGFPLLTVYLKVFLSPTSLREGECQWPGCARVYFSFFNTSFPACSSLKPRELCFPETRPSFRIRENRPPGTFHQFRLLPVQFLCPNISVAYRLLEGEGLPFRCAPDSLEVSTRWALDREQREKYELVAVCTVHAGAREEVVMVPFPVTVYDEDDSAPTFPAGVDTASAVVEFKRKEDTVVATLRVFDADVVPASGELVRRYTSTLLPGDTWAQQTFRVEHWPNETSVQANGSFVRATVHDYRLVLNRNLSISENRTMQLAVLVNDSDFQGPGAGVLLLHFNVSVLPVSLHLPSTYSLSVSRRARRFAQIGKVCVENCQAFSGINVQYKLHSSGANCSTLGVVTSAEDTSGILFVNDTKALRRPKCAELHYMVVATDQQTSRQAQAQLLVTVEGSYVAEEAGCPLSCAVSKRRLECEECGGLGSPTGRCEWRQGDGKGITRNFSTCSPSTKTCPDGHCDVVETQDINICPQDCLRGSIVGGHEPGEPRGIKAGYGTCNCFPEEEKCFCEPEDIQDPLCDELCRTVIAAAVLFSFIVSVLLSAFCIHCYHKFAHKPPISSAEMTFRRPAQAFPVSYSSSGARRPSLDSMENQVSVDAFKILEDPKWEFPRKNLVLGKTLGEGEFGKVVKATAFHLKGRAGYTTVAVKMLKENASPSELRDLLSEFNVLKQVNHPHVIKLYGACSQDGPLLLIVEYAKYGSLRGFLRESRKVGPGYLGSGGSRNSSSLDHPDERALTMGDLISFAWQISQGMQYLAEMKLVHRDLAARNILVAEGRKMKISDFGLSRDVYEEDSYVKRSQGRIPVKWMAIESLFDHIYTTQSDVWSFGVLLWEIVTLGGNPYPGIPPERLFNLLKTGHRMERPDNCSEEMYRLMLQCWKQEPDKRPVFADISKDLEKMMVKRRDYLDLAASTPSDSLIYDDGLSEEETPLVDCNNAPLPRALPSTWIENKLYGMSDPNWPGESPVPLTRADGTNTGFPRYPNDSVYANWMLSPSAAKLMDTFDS

340 wild-type kinases [2] = target: T2, 340 wild-type kinases (Homo sapiens, UniProt Q04771)
T2 construct: purchased Reaction Biology Europe
T2 sequence (Q04771 21-509): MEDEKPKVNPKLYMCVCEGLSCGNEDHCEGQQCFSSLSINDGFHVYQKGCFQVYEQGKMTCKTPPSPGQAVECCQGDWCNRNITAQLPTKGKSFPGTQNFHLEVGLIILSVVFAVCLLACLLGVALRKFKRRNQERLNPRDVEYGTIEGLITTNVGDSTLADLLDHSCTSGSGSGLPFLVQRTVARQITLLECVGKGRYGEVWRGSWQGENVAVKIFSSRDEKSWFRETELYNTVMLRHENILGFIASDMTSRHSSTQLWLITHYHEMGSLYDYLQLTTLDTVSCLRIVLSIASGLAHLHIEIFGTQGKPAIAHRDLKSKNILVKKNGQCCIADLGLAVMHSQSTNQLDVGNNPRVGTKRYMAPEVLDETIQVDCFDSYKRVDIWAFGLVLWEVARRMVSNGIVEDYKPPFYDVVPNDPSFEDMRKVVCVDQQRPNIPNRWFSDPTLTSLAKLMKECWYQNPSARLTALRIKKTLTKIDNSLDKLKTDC

340 wild-type kinases [3] = target: T3, 340 wild-type kinases (Homo sapiens, UniProt O75116)
T3 construct: purchased Reaction Biology Europe

340 wild-type kinases [4] = target: T4, 340 wild-type kinases (Homo sapiens, UniProt P48729)
T4 construct: purchased Reaction Biology Europe
T4 sequence (P48729 whole entry): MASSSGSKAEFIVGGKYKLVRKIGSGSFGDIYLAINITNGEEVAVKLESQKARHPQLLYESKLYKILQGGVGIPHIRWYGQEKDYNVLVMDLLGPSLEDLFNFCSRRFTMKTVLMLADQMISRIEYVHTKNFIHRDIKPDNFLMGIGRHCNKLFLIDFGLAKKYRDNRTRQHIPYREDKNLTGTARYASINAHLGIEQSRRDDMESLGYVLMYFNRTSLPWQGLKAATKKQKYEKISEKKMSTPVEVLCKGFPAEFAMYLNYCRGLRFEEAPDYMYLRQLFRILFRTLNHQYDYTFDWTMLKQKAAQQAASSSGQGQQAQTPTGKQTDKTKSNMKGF

340 wild-type kinases [5] = target: T5, 340 wild-type kinases (Homo sapiens, UniProt P12931)
T5 construct: purchased Reaction Biology Europe
T5 sequence (P12931 whole entry): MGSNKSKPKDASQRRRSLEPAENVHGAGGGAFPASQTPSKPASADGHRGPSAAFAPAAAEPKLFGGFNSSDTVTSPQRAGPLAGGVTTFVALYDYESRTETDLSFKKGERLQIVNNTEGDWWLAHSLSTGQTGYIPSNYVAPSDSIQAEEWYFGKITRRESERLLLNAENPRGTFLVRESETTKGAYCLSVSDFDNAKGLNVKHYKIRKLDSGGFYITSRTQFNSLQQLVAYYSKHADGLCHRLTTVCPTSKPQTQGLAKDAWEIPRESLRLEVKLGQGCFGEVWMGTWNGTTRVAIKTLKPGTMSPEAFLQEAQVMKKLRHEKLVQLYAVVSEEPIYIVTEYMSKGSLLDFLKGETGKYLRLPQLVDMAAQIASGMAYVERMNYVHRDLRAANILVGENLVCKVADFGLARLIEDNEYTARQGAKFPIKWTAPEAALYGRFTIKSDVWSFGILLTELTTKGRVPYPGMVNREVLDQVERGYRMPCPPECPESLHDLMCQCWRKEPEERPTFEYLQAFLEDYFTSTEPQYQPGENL

340 wild-type kinases [6] = target: T6, 340 wild-type kinases (Homo sapiens, UniProt Q9HBH9)
T6 construct: purchased Reaction Biology Europe
T6 sequence (Q9HBH9 whole entry): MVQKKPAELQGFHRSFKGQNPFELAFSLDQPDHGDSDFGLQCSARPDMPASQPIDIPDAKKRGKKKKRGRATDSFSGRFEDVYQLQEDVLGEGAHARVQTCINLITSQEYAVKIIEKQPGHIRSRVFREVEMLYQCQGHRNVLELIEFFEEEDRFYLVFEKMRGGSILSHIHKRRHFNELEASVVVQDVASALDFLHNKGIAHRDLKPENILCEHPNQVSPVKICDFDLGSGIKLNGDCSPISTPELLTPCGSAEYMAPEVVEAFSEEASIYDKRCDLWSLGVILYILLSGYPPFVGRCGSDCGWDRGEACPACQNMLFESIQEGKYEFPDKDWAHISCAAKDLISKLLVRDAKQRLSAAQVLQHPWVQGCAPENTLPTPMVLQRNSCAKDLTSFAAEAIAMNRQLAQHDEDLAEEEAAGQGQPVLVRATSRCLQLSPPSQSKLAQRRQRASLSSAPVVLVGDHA

340 wild-type kinases [7] = target: T7, 340 wild-type kinases (Homo sapiens, UniProt P07947)
T7 construct: purchased Reaction Biology Europe
T7 sequence (P07947 whole entry): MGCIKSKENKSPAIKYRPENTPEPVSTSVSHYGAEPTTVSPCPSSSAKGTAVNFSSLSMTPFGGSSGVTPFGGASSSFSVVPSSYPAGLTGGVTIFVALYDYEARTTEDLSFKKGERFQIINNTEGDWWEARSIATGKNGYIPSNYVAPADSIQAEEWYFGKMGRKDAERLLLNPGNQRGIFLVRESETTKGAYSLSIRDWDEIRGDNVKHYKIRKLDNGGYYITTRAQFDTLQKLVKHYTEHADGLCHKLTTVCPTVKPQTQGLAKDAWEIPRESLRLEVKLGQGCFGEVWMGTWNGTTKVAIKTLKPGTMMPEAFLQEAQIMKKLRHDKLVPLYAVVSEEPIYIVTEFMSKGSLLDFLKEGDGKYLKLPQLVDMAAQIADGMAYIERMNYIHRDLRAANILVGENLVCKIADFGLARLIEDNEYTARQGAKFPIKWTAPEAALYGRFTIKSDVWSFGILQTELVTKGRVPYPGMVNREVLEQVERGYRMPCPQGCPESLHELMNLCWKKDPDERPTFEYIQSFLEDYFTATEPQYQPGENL

340 wild-type kinases [8] = target: T8, 340 wild-type kinases (Homo sapiens, UniProt Q8IZL9)
T8 construct: purchased Reaction Biology Europe
T8 sequence (Q8IZL9 whole entry): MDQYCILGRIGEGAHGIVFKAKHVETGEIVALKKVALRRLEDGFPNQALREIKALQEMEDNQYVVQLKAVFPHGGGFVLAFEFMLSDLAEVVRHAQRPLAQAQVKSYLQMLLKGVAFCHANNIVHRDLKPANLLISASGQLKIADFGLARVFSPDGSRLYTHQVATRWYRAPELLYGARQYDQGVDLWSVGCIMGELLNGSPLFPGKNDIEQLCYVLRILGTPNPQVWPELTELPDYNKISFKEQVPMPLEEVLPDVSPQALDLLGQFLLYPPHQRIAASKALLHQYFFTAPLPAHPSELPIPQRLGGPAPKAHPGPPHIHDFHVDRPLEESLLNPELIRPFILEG

340 wild-type kinases [9] = target: T9, 340 wild-type kinases (Homo sapiens, UniProt P29320)
T9 construct: purchased Reaction Biology Europe
T9 sequence (P29320 21-983): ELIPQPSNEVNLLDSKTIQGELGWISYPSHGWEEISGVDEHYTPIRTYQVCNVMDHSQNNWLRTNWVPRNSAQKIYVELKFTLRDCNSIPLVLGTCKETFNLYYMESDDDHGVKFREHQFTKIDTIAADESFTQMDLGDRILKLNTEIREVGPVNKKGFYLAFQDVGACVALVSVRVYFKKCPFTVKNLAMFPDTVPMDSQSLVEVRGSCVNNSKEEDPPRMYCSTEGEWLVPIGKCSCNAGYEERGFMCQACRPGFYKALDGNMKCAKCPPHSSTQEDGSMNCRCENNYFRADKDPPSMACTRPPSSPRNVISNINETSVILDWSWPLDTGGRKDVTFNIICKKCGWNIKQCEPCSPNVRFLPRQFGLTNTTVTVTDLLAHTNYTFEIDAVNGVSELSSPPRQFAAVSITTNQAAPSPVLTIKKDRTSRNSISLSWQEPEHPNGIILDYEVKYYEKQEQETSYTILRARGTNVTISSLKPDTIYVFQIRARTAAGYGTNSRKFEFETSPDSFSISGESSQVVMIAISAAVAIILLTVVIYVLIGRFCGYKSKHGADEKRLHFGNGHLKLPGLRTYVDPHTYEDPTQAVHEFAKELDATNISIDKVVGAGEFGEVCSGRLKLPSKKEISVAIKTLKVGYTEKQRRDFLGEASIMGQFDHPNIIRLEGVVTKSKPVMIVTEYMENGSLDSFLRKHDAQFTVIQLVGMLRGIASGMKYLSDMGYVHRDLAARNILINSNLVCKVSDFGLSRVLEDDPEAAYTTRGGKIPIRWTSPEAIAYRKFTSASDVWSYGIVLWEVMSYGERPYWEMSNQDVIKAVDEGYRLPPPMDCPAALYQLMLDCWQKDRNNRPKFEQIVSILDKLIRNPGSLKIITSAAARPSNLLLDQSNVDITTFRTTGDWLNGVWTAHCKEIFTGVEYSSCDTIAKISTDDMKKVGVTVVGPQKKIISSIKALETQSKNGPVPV

340 wild-type kinases [10] = target: T10, 340 wild-type kinases (Homo sapiens, UniProt P51451)
T10 construct: purchased Reaction Biology Europe
T10 sequence (P51451 whole entry): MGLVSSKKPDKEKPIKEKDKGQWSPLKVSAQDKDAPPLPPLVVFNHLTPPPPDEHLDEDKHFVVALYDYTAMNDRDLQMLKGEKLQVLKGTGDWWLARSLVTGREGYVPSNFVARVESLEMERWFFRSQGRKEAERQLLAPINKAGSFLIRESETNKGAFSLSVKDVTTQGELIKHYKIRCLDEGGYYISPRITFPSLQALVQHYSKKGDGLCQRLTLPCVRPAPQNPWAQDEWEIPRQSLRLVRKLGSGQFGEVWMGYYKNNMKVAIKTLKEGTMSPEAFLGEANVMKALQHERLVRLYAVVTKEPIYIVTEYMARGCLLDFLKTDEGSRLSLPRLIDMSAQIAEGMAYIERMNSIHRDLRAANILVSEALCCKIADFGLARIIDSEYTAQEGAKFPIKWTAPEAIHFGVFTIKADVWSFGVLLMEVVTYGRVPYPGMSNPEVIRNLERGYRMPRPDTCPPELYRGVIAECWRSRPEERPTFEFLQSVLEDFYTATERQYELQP

340 wild-type kinases [11] = target: T11, 340 wild-type kinases (Homo sapiens, UniProt P05771)
T11 construct: purchased Reaction Biology Europe

Compound: CNC(=O)c1ccc2c(c1)C(=O)c1ccc(Nc3ccc(F)c(NC(=O)C4CC4)c3)cc1CC2 [Compound 2015]
- remaining activity at 0.2 µM (340 wild-type kinases [1]; 0.2 µM 2015, read-out: RET residual activity): 105%
- remaining activity at 1 µM (340 wild-type kinases [1]; 1 µM 2015, read-out: RET residual activity): 80.3%
- remaining activity at 0.2 µM (340 wild-type kinases [1]; RET, 0.2 µM, read-out: residual activity): 105%
- remaining activity at 1 µM (340 wild-type kinases [1]; RET, 1 µM, read-out: residual activity): 80.3%
- remaining activity at 0.2 µM (340 wild-type kinases [2]; 0.2 µM 2015, read-out: ACVR1 residual activity): 88.7%
- remaining activity at 1 µM (340 wild-type kinases [2]; 1 µM 2015, read-out: ACVR1 residual activity): 96.8%
- remaining activity at 0.2 µM (340 wild-type kinases [2]; ACVR1, 0.2 µM, read-out: residual activity): 88.7%
- remaining activity at 1 µM (340 wild-type kinases [2]; ACVR1, 1 µM, read-out: residual activity): 96.8%
- remaining activity at 0.2 µM (340 wild-type kinases [3]; 0.2 µM 2015, read-out: ROCK2 residual activity): 89%
- remaining activity at 1 µM (340 wild-type kinases [3]; 1 µM 2015, read-out: ROCK2 residual activity): 86.3%
- remaining activity at 0.2 µM (340 wild-type kinases [3]; ROCK2, 0.2 µM, read-out: residual activity): 89%
- remaining activity at 1 µM (340 wild-type kinases [3]; ROCK2, 1 µM, read-out: residual activity): 86.3%
- remaining activity at 0.2 µM (340 wild-type kinases [4]; 0.2 µM 2015, read-out: CK1alpha1 residual activity): 98.6%
- remaining activity at 0.2 µM (340 wild-type kinases [4]; CK1alpha1, 0.2 µM, read-out: residual activity): 98.6%
- remaining activity at 1 µM (340 wild-type kinases [4]; CK1alpha1, 1 µM, read-out: residual activity): 94.9%
- remaining activity at 0.2 µM (340 wild-type kinases [5]; 0.2 µM 2015, read-out: SRC residual activity): 105%
- remaining activity at 1 µM (340 wild-type kinases [5]; 1 µM 2015, read-out: SRC residual activity): 95.5%
- remaining activity at 0.2 µM (340 wild-type kinases [5]; SRC, 0.2 µM, read-out: residual activity): 105%
- remaining activity at 1 µM (340 wild-type kinases [5]; SRC, 1 µM, read-out: residual activity): 95.5%
- remaining activity at 0.2 µM (340 wild-type kinases [6]; 0.2 µM 2015, read-out: MKNK2 residual activity): 105%
- remaining activity at 1 µM (340 wild-type kinases [6]; 1 µM 2015, read-out: MKNK2 residual activity): 102%
- remaining activity at 0.2 µM (340 wild-type kinases [6]; MKNK2, 0.2 µM, read-out: residual activity): 105%
- remaining activity at 1 µM (340 wild-type kinases [6]; MKNK2, 1 µM, read-out: residual activity): 102%
- remaining activity at 0.2 µM (340 wild-type kinases [7]; 0.2 µM 2015, read-out: YES residual activity): 102%
- remaining activity at 1 µM (340 wild-type kinases [7]; 1 µM 2015, read-out: YES residual activity): 105%
- remaining activity at 0.2 µM (340 wild-type kinases [7]; YES, 0.2 µM, read-out: residual activity): 102%
- remaining activity at 1 µM (340 wild-type kinases [7]; YES, 1 µM, read-out: residual activity): 105%
- remaining activity at 0.2 µM (340 wild-type kinases [8]; 0.2 µM 2015, read-out: CDK20/CycH residual activity): 107%
- remaining activity at 0.2 µM (340 wild-type kinases [8]; 0.2 µM 2015, read-out: CDK20/CycT1 residual activity): 103%
- remaining activity at 1 µM (340 wild-type kinases [8]; 1 µM 2015, read-out: CDK20/CycH residual activity): 97.2%
- remaining activity at 1 µM (340 wild-type kinases [8]; 1 µM 2015, read-out: CDK20/CycT1 residual activity): 96.3%
- remaining activity at 0.2 µM (340 wild-type kinases [8]; CDK20/CycH, 0.2 µM, read-out: residual activity): 107%
- remaining activity at 1 µM (340 wild-type kinases [8]; CDK20/CycH, 1 µM, read-out: residual activity): 97.2%
- remaining activity at 0.2 µM (340 wild-type kinases [8]; CDK20/CycT1, 0.2 µM, read-out: residual activity): 103%
- remaining activity at 1 µM (340 wild-type kinases [8]; CDK20/CycT1, 1 µM, read-out: residual activity): 96.3%
- remaining activity at 0.2 µM (340 wild-type kinases [9]; 0.2 µM 2015, read-out: EPHA3 residual activity): 100%
- remaining activity at 1 µM (340 wild-type kinases [9]; 1 µM 2015, read-out: EPHA3 residual activity): 96.4%
- remaining activity at 0.2 µM (340 wild-type kinases [9]; EPHA3, 0.2 µM, read-out: residual activity): 100%
- remaining activity at 1 µM (340 wild-type kinases [9]; EPHA3, 1 µM, read-out: residual activity): 96.3%
- remaining activity at 0.2 µM (340 wild-type kinases [10]; 0.2 µM 2015, read-out: BLK residual activity): 107%
- remaining activity at 1 µM (340 wild-type kinases [10]; 1 µM 2015, read-out: BLK residual activity): 104%
- remaining activity at 0.2 µM (340 wild-type kinases [10]; BLK, 0.2 µM, read-out: residual activity): 107%
- remaining activity at 1 µM (340 wild-type kinases [10]; BLK, 1 µM, read-out: residual activity): 104%
- remaining activity at 0.2 µM (340 wild-type kinases [11]; 0.2 µM 2015, read-out: PKCbeta1 residual activity): 109%
- remaining activity at 1 µM (340 wild-type kinases [11]; 1 µM 2015, read-out: PKCbeta1 residual activity): 100%
- remaining activity at 0.2 µM (340 wild-type kinases [11]; PKCbeta1, 0.2 µM, read-out: residual activity): 109%
- remaining activity at 1 µM (340 wild-type kinases [11]; PKCbeta1, 1 µM, read-out: residual activity): 100%
- remaining activity at 0.2 µM (340 wild-type kinases [11]; PKCbeta2, 0.2 µM, read-out: residual activity): 103%
- remaining activity at 1 µM (340 wild-type kinases [11]; PKCbeta2, 1 µM, read-out: residual activity): 109%
